Laboratory results published in patent US6344457B1, “Amino acid derivatives inhibiting extracellular matrix metalloproteinase and TNF alpha release” (Chiesi Farmaceutici S.p.A., priority 1997, dated 2002).

Columns and labels:
[1] = test system: release of TNF from the peritoneal macrophages of mice stimulated by LPS; assay: Inhibition of the production of TNF in vitro; type: cell-based; conditions: Peritoneal macrophage; mouse peritoneal macrophages, LPS 100 ng/ml; read-out: C150 (μM) TNF
Experimental: The capacity of the compounds according to this invention to inhibit the release of TNF was determined from the peritoneal macrophages of mice stimulated by LPS (Lang, F., Robert, […], Petit, J. Y., J. Pharmacol. Exp. Ther., 275, 171-176, 1995). After an adhesion phase of 2 hours, the cells were treated for 1 hour with the compound to be tested at concentrations ranging between 10^-6 to 10^-9 M (the inhibitor is dissolved in DMSO at 10^-2 M, then at 5.10^-3 M in RPMI 1640 with 5% SVF, then diluted successively by tenths in the same medium), then stimulated by the addition of LPS (100 ng/ml in final concentration). Three hours later, the biological activity of the TNF in the supernatants was determined by a cytotoxicity test using the murine stock L929 in accordance with the operating procedure described by Band, G., Lin, […]., Evans, C. H. (Bioch. Biophys. Acta, 1134, 309-318, 1982). The pg/ml concentration of the TNF of the samples was determined from a murine αTNF standard curve, thus making it possible to define the inhibiting concentration […] of the compounds studied.

[2] = test system: femoral head cartilage of the rat implanted subcutaneously in mice; assay: Inhibition of the breakdown of cartilage in vivo; conditions: 10 mg/kg i.p. twice a day, 21 days
Experimental: The activities of the compounds of example 1 and example 10 comparatively to the compound BB16 were determined in a model of breakdown of cartilage in accordance with the operating mode described by Bottomley, K. M. K., Griffith, S. R. J., Rising, T. G., Steward, A. (Brit. J. Pharmacol. 21, 287-289, 1988). Femoral head cartilage of the rat, wrapped in sterile cotton, is implanted subcutaneously on the backs of mice. After 21 days, the mice are euthanized, the cartilages recovered and weighed. The animals are treated each day, twice a day, with one 10-mg/kg dose i.p.

[3] = target: stromelysine of human origin (Homo sapiens, UniProt P08254); assay: Activity on stromelysine; type: biochemical; conditions: radiomarked transferrin, 37° C., 16 hours; read-out: C150 (nM) stromelysine
Experimental: (§1) The stromelysine was incubated at 37° C. for 16 hours with radiomarked transferrin, and its activity was determined by the release of the soluble peptides produced by the enzymatic breakdown of the transferrin. The inhibiting concentration C150 for each compound was determined by measurement of the activity of the enzyme in the presence of the inhibitor at a concentration ranging between 10^−7 and 10^−12 M (the inhibitor is dissolved in the same manner as for collagenase).

[4] = target: T1, 72 kDa gelatinase of human origin (Homo sapiens, UniProt P08253); assay: Activity on gelatinase, synthetic substrate; type: biochemical; conditions: performed on synthetic substrate; read-out: C150 (nM) gelatinase 72 kDa**
T1 sequence (P08253 110-660): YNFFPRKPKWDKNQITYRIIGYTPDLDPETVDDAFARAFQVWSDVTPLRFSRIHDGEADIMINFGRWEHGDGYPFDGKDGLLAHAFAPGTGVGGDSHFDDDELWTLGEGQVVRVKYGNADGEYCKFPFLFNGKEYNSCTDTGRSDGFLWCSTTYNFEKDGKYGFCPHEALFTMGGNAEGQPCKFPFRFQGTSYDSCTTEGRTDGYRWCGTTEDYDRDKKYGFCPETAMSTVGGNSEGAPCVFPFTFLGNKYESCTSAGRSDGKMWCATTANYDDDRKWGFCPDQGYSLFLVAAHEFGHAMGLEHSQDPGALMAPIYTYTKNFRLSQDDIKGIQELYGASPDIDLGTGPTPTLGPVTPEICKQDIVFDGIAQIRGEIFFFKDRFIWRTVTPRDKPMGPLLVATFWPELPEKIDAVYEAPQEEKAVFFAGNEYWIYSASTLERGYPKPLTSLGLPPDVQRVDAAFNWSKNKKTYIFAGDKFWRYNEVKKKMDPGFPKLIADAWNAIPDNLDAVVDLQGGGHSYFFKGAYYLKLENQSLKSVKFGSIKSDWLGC
Experimental: The anti-gelatinase activity of the compounds according to the invention was determined on 72 kDa gelatinase of human origin, in accordance with the operating mode described by Knight, C. G., Willenbrock, F., Murphy, G. (FEBS Letters, 296 (3), 263-266, 1992).
The gelatinase was incubated at 37° C. for 10 minutes, and its activity was determined by the increase in fluorescence of the product of Mca-Pro-Leu breakdown of the Mca-Pro-Leu-Gly-Leu-Dpa-Ala-Arg-NH2 synthetic substrate.
The inhibiting concentration C150 for each compound was determined by measurement of the activity of the enzyme in the presence of the inhibitor at a concentration ranging between 10^−7 and 10^−12 M (the inhibitor is dissolved at a concentration of 10^−2 M in DMSO, then diluted successively by tenths in DMSO to 10^−4 M, then in the buffer: Tris, HCl 50 mM+0.05% Brij 35; CaCl2 10 mM; NaCl 0.15 M).

[5] = target: T2, collagenase of the human monocytic stock U937 (Homo sapiens, UniProt P03956); assay: Activity on collagenase; type: biochemical; conditions: radiomarked collagen, 27° C., 16 hours; read-out: C150 (nM) collagenase
T2 construct: the collagenase of the human monocytic stock U937; endogenous in cells; host or cells: U937 human monocytic cell line
T2 sequence (P03956 100-469): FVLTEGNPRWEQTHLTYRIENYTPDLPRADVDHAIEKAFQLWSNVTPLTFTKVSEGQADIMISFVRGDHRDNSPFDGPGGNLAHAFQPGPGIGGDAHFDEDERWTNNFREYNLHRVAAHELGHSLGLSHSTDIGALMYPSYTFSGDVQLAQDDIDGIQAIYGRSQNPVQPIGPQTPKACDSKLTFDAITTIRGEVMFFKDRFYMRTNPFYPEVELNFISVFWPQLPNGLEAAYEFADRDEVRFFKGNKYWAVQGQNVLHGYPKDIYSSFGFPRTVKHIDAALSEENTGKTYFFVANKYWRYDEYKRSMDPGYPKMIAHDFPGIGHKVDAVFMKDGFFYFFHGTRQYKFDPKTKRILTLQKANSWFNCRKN
Experimental: The collagenase was incubated at 27° C. for 16 hours with radiomarked collagen, and its activity was determined by the release of soluble peptides produced by the enzymatic breakdown of the collagen. The inhibiting concentration C150 for each compound was determined by measurement of the activity of the enzyme in the presence of the inhibitor at a concentration ranging between 10^−7 and 10^−12 M (the inhibitor is dissolved at a concentration of 10^−2 M in DMSO, then diluted successively by tenths in the buffer: Tris, HCl 150 mM, pH 7.5; NaCl 0.15 M; CaCl2 10 mM).

[6] = target: 92 kDa gelatinase of human origin (Homo sapiens, UniProt P14780); assay: Activity on gelatinase, radiomarked gelatin; type: biochemical; conditions: test performed with radiomarked gelatin; read-out: C150 (nM) gelatinase 92 kDa*
Experimental: The anti-gelatinase activity of the compounds according to the invention also was determined on 92 kDa or 72 kDa gelatinase of human origin, in accordance with the operating mode described by Harris, E. D., Krane, S. M.; (Biochem. Biophys. Acta, 258, 566-576, 1972).
as §1, with “gelatinase” for “stromelysine”, “gelatin,” for “transferrin,”, “gelatin.” for “transferrin.”

[7] = test system: female Balb/c mice (D-galactosamine + LPS shock); assay: Inhibition of septic shock; type: in vivo; conditions: i.p. 30 minutes prior to induction of the shock; survival over 48 hours
Experimental: Septic shock is induced in female Balb/c mice in accordance with the procedure described by Mohler, K. M. et al. (Nature, 370, 218-220, 1994). Briefly, the shock is induced by i.p. injection of 20 mg of D-galactosamine and i.v. injection of 20 ng of LPS. The survival of the animals is evaluated for the following 48 hours.
The products to be tested are injected i.p. 30 minutes prior to induction of the shock. The compounds according to the invention protect from shock from 10 to 50 mg/kg. For instance, the compound of example 10 protects at 50 mg/kg.

[8] = test system: metalloproteinase (MMP); conditions: Bioorg. Med. Chem. Letters (1996), 6, 1719-1724; cited from earlier work
[9] = test system: metalloproteinase (MMP); conditions: J. Am. Chem. Soc. (1995), 117, 4671-4682; cited from earlier work

Sequence of 92 kDa gelatinase of human origin (P14780 94-707): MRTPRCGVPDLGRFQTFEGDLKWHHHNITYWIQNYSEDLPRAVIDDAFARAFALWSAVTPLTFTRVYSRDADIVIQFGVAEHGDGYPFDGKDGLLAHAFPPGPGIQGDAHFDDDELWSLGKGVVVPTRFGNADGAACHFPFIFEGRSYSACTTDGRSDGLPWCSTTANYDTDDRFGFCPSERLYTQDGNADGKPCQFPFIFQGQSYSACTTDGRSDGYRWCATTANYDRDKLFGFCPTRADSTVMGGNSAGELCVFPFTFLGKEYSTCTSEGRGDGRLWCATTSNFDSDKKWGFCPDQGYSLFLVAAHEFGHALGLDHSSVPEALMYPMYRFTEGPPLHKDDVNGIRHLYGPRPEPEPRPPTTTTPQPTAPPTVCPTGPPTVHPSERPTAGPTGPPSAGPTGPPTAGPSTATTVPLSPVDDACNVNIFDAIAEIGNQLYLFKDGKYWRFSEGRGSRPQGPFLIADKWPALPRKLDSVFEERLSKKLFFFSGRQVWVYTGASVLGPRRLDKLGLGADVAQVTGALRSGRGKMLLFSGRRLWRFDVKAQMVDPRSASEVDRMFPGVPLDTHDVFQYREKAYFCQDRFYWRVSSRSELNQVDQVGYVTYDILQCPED
Sequence of stromelysine of human origin (P08254 100-477): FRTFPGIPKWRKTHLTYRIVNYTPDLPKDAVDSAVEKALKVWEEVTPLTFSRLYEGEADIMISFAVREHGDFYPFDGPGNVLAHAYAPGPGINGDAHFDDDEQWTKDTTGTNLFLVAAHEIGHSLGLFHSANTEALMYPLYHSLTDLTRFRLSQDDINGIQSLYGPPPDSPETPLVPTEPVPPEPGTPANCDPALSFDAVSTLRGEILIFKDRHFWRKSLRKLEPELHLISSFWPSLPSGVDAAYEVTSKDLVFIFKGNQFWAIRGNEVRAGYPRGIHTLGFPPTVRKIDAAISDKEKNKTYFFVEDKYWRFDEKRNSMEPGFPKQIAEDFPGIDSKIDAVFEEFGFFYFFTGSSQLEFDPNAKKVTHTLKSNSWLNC

| SMILES | IC50 [1] [µM] | inhibition of weight loss of the cartilage [2] [%] | IC50 [3] [nM] | IC50 [4] [nM] | IC50 [5] [nM] | IC50 [6] [nM] | melting point | dose that protects from septic shock [7] [mg/kg] | activity on gem disubstitution, versus compound VII [8] | loss of activity (factor) on substitution of the hydrogen with a methyl, compound V versus compound VI [9] |
| --- | --- | --- | --- | --- | --- | --- | --- | --- | --- | --- |
| CNC(=O)[C@H](Cc1ccc(OC)cc1)NC(=O)[C@](O)(CC(C)C)[C@H](C)C(=O)NO [Example 1] | 1 | 42 | 15 | 1 | 5 | 1 | – | – | – | – |
| CNC(=O)[C@H](Cc1ccccc1)NC(=O)[C@](O)(CC(C)C)[C@H](C)C(=O)NO [Example 4, N-2(S)[1(S)(hydroxycarbamoyl)ethyl] 2(S) hydroxy4-methyl pentanoyl L-phenyl alanine N-methylamide] | – | – | 29 | 1.6 | 36 | 10 | 174.2 °C (dec.) | – | – | – |
| CNC(=O)[C@H](Cc1ccc(Cl)cc1)NC(=O)[C@](O)(CC(C)C)[C@H](C)C(=O)NO [Example 10, N-2(S) [-1(S) (hydroxycarbamoyl)-1 ethyl]-2(S) hydroxy-4-methyl pentanoyl L4-chlorophenylalanine N-methylamide] | 0.4 | 65 | 48 | 1 | 4 | 2 | – | 50 | – | – |
| CNC(=O)[C@H](Cc1ccc(Br)cc1)NC(=O)[C@](O)(CC(C)C)[C@H](C)C(=O)NO [Example 11, N-2(S)[-1(S)(hydroxycarbamoyl)-1 ethyl]-2(S) hydroxy 4-methyl pentanoyl L-4-bromophenylalanine N-methylamide] | 0.61 | – | 37 | 2 | 10 | 2 | 214 °C (dec.) | – | – | – |
| CNC(=O)[C@H](Cc1ccc(F)cc1)NC(=O)[C@](O)(CC(C)C)[C@H](C)C(=O)NO [Example 16, N-2(S)[1(S)hydroxycarbamoyl-1 ethyl]-2(S) hydroxy 4-methylpentanoyl L-4-fluorophenylalanine N-methylamide] | 0.6 | – | – | 1.2 | 14 | 2 | 186.5 °C | – | – | – |
| CNC(=O)[C@H](Cc1ccc(Cl)c(Cl)c1)NC(=O)[C@](O)(CC(C)C)[C@H](C)C(=O)NO [Example 18, N-2(S)[1(S)hydroxycarbamoyl-1 ethyl]-2 (S) hydroxy 4-methylpentanoyl L-3,4-dichlorophenylalanine N-methylamide] | ≤ 0.14 | – | 6 | 0.4 | 2 | 0.002 | 216 °C (dec.) | – | – | – |
| CNC(=O)[C@H](Cc1ccc(OC)cc1)NC(=O)[C@](O)(CC(C)C)[C@H](O)C(=O)NO [Example 29] | – | – | – | 13 | 26 | 80 | 199 °C (dec.) | – | – | – |
| CNC(=O)[C@H](Cc1ccc(Cl)c(Cl)c1)NC(=O)[C@](O)(CC(C)C)[C@H](O)C(=O)NO [Example 30] | 3.6 | – | > 1000 | – | 11 | 7 | 194.1 °C | – | – | – |
| CNC(=O)[C@H](Cc1ccc(OC)cc1)NC(=O)C1(CC(=O)NO)CCc2ccccc21 (stereo partly shown) [IX] | – | – | – | – | – | – | – | – | significant loss of activity | – |
| CNC(=O)[C@H](Cc1ccc(OC)cc1)NC(=O)C(C)(CC(=O)NO)c1ccccc1 (stereo partly shown) [VIII] | – | – | – | – | – | – | – | – | significant loss of activity | – |
| CNC(=O)[C@H](Cc1c[nH]c2ccccc12)NC(=O)[C@@](C)(CC(=O)NO)CC(C)C [compound VI] | – | – | – | – | – | – | – | – | – | 300 |
| CNC(=O)[C@H](Cc1ccc(OC)cc1)NC(=O)[C@H](CC(C)C)[C@H](C)C(=O)NO [drawing 111, reference compound] | 0.14 | – | 10 | 0.6 | 5 | 7 | – | – | – | – |
